Source: patent publication US20250154141A1 (University of Florida Research Foundation, Incorporated, priority 2021, published 2025)
Read-outs that look alike come from different tables or passages of the source.

How the values were obtained:
Format in all cases: cell-based
MOLT-4 = assay: Cell viability assay (MTS) in MOLT-4 cells; conditions: Homo sapiens
Protocol: (§1) Acute lymphoblastic leukemia cells (MOLT-4 and RS4; 11) were incubated with increasing concentrations of Bcl-xL degraders for 48 h. Cell viability was measured by tetrazolium-based MTS assay.

RS4; 11 = assay: Cell viability assay (MTS) in RS4; 11 cells; conditions: Homo sapiens
Protocol: as §1

human platelets = assay: Platelet toxicity assay (MTS viability); conditions: for IC50: Homo sapiens, Platelet, 48 h, human platelets
Protocol: Platelet-rich plasma (PRP) was purchased from Life South Community Blood Centers (Gainesville, FL, USA). PRP was transferred into a 50 mL tube containing 5 mL of the acid citrate buffer (Cat. No. sc-214744, Santa Cruz Biotechnology). To prevent clotting, prostaglandin E1 (PGE1, Cat. No. sc-201223A, Santa Cruz Biotechnology, Dallas, TX, USA) and apyrase (Cat. No. A6237, Sigma-Aldrich, St. Louis, MO, USA) were added to final concentrations of […] and 0.2 U/mL, respectively. After gently mixing the solution, platelets were pelleted by centrifugation at 1200 g for 10 min without break. Pelleted platelets were gently washed without disturbing platelets using 2 mL of HEPES Tyrode's buffer (Cat. No. PY-921WB, Boston BioProducts, Ashland, MA, USA) containing […] PGE1 and 0.2 U/mL apyrase. After washing, pellets were gently suspended in 10 mL of HEPES Tyrode's buffer containing […] PGE1 and 0.2 U/mL apyrase. Then, the platelet number was counted using a HEMAVET 950FS hematology analyzer (Drew Scientific, Inc., Oxford, CT, USA). For viability assays, the platelet number was adjusted to 2×10^8/mL in HEPES Tyrode's buffer containing […] PGE1 and 0.2 U/mL apyrase. Each treatment was given in 2 mL of the platelet suspension in 15 mL polypropylene tubes. The tubes were placed on a rotating platform at room temperature, and the viability of platelets was measured after 48 h treatment by using the MTS reagent (Cat. No. G1111, Promega, Madison, WI, USA). The data were analyzed by the GraphPad Prism 7 software for the calculation of IC50 values.

[1] = RS4-11, Table 4, 48 h, read-out: RS4 48 h IC50
[2] = Table 4, read-out: Platelets 48 h IC50
[3] = MOLT-4, Table 2, 48 hr, MTS, read-out: Anti-Cancer Activity IC50 (48 hr) MOLT-4
[4] = RS4-11, Table 2, 48 hr, MTS, read-out: Anti-Cancer Activity IC50 (48 hr) RS4, 11
[5] = MOLT-4, Table 2A, 48 hr, MTS, read-out: Anti-Cancer Activity IC50 (48 hr) MOLT-4
[6] = RS4-11, Table 2A, 48 hr, MTS, read-out: Anti-Cancer Activity IC50 (48 hr) RS4, 11
[7] = MOLT-4, 48 h, read-out: Anti-Cancer Activity IC50 (48 hr) MOLT-4
[8] = RS4-11, 48 h, read-out: Anti-Cancer Activity IC50 (48 hr) RS4, 11

CC1(C)CCC(c2ccc(Cl)cc2)=C(CN2CCN(c3ccc(C(=O)NS(=O)(=O)c4ccc(N[C@H](CCN5CCOCC5)CSc5ccccc5)c(S(=O)(=O)C(F)(F)F)c4)cc3)CC2)C1 [ABT-263, navitoclax, reference compound]
IC50 (MOLT-4; MOLT-4, Table 3, 48 h, mean of two independent experiments in triplicates, read-out: MOLT-4 48 h IC50): 220 nM
IC50 (RS4; 11; [1]): 38 nM
IC50 (human platelets; Table 3, mean of two independent experiments in triplicates, read-out: Platelets 48 h IC50): 312 nM
IC50 (human platelets; [2]): 260 nM
IC50 (human platelets; Table 6, 4 th time, read-out: Platelets 4 th time 48 h IC50): 223 nM
Platelets/MOLT-4 IC50 Fold change (human platelets; Table 3, ratio of platelet IC50 to MOLT-4 IC50): 1.4
Platelets/MOLT-4 IC50 Fold change (human platelets; Table 6, ratio of platelet IC50 to MOLT-4 IC50): 1

Cc1ncsc1-c1ccc([C@H](C)NC(=O)[C@@H]2C[C@@H](O)CN2C(=O)[C@@H](NC(=O)CCCCCNC(=O)c2ccc(N3CCN(CC4(C)CCC(c5ccc(Cl)cc5)=C(CN5CCN(c6ccc(C(=O)NS(=O)(=O)c7ccc(N[C@H](CCN8CCOCC8)CSc8ccccc8)c(S(=O)(=O)C(F)(F)F)c7)cc6)CC5)C4)CC3)nc2)C(C)(C)C)cc1 (some centres unmarked) [Compound 3]
IC50 (MOLT-4; [3]): < 20 nM
IC50 (MOLT-4; MOLT-4, Table 4, 48 h, read-out: MOLT-4 48 h IC50): 9.6 nM
IC50 (RS4; 11; [4]): 20 to 100 nM
IC50 (RS4; 11; [1]): 44.9 nM
IC50 (human platelets; [2]): 4900 nM
PLT/MOLT-4 IC50 Fold Change (human platelets; Table 4, ratio of platelet IC50 to MOLT-4 IC50): 510

Cc1ncsc1-c1ccc([C@H](C)NC(=O)[C@@H]2C[C@@H](O)CN2C(=O)[C@@H](NC(=O)CCCCCCS(=O)(=O)N2CCN(C[C@]3(C)CCC(c4ccc(Cl)cc4)=C(CN4CCN(c5ccc(C(=O)NS(=O)(=O)c6ccc(N[C@H](CCN7CCCOCC7)CSc7ccccc7)c(S(=O)(=O)C(F)(F)F)c6)cc5)CC4)C3)CC2)C(C)(C)C)cc1 [Compound 96, (2S,4R)-1-((S)-2-(7-((4-(((R)-6-((4-(4-(((4-(((R)-4-(1,4-oxazepan-4-yl)-1-(phenylthio)butan-2-yl)amino)-3-((trifluoromethyl)sulfonyl)phenyl)sulfonyl)carbamoyl)phenyl)piperazin-1-yl)methyl)-4′-chloro-4-methyl-2,3,4,5-tetrahydro-[1,1′-biphenyl]-4-yl)methyl)piperazin-1-yl)sulfonyl)heptanamido)-3,3-dimethylbutanoyl)-4-hydroxy-N—((S)-1-(4-(4-methylthiazol-5-yl)phenyl)ethyl)pyrrolidine-2-carboxamide]
IC50 (MOLT-4; [3]): < 20 nM
IC50 (RS4; 11; [4]): < 20 nM

Cc1ncsc1-c1ccc([C@H](C)NC(=O)[C@@H]2C[C@@H](O)CN2C(=O)[C@@H](NC(=O)CC(=O)N2CCC(S(=O)(=O)N3CCN(C[C@]4(C)CCC(c5ccc(Cl)cc5)=C(CN5CCN(c6ccc(C(=O)NS(=O)(=O)c7ccc(N[C@H](CCN8CCCOCC8)CSc8ccccc8)c(S(=O)(=O)C(F)(F)F)c7)cc6)CC5)C4)CC3)CC2)C(C)(C)C)cc1 [Compound 100]
IC50 (MOLT-4; [3]): 100 to 500 nM
IC50 (RS4; 11; [4]): 20 to 100 nM

Cc1ncsc1-c1ccc([C@H](C)NC(=O)[C@@H]2C[C@@H](O)CN2C(=O)[C@@H](NC(=O)CCS(=O)(=O)N2CCN(C[C@]3(C)CCC(c4ccc(Cl)cc4)=C(CN4CCN(c5ccc(C(=O)NS(=O)(=O)c6ccc(N[C@H](CCN7CCCOCC7)CSc7ccccc7)c(S(=O)(=O)C(F)(F)F)c6)cc5)CC4)C3)CC2)C(C)(C)C)cc1 [Compound 109]
IC50 (MOLT-4; [5]): 100 to 500 nM
IC50 (RS4; 11; [6]): 20 to 100 nM

Cc1ncsc1-c1ccc([C@H](C)NC(=O)[C@@H]2C[C@@H](O)CN2C(=O)[C@@H](NC(=O)CCCCS(=O)(=O)N2CCN(C[C@]3(C)CCC(c4ccc(Cl)cc4)=C(CN4CCN(c5ccc(C(=O)NS(=O)(=O)c6ccc(N[C@H](CCN7CCCOCC7)CSc7ccccc7)c(S(=O)(=O)C(F)(F)F)c6)cc5)CC4)C3)CC2)C(C)(C)C)cc1 [Compound 110]
IC50 (MOLT-4; [5]): 20 to 100 nM
IC50 (RS4; 11; [6]): < 20 nM

Cc1ncsc1-c1ccc([C@H](C)NC(=O)[C@@H]2C[C@@H](O)CN2C(=O)[C@@H](NC(=O)COCCCNC(=O)c2ccc(N3CCN(C[C@]4(C)CCC(c5ccc(Cl)cc5)=C(CN5CCN(c6ccc(C(=O)NS(=O)(=O)c7ccc(N[C@H](CCN8CCCOCC8)CSc8ccccc8)c(S(=O)(=O)C(F)(F)F)c7)cc6)CC5)C4)CC3)nn2)C(C)(C)C)cc1 [Compound 111]
IC50 (MOLT-4; [5]): < 20 nM
IC50 (RS4; 11; [6]): < 20 nM

Cc1ncsc1-c1ccc([C@H](C)NC(=O)[C@@H]2C[C@@H](O)CN2C(=O)[C@@H](NC(=O)CN(C)CCCNC(=O)c2ccc(N3CCN(C[C@]4(C)CCC(c5ccc(Cl)cc5)=C(CN5CCN(c6ccc(C(=O)NS(=O)(=O)c7ccc(N[C@H](CCN8CCCOCC8)CSc8ccccc8)c(S(=O)(=O)C(F)(F)F)c7)cc6)CC5)C4)CC3)nn2)C(C)(C)C)cc1 [Compound 112]
IC50 (MOLT-4; [7]): 20 to 100 nM
IC50 (RS4; 11; [8]): < 20 nM

Cc1ncsc1-c1ccc([C@H](C)NC(=O)[C@@H]2C[C@@H](O)CN2C(=O)[C@@H](NC(=O)CN2CCN(CCNC(=O)c3ccc(CN4CCN(C[C@]5(C)CCC(c6ccc(Cl)cc6)=C(CN6CCN(c7ccc(C(=O)NS(=O)(=O)c8ccc(N[C@H](CCN9CCCOCC9)CSc9ccccc9)c(S(=O)(=O)C(F)(F)F)c8)cc7)CC6)C5)CC4)nc3)CC2)C(C)(C)C)cc1 [Compound 114]
IC50 (MOLT-4; [5]): < 20 nM
IC50 (RS4; 11; [6]): < 20 nM

Cc1ncsc1-c1ccc([C@H](C)NC(=O)[C@@H]2C[C@@H](O)CN2C(=O)[C@@H](NC(=O)CN2CCN(C(=O)CC(=O)N3CCN(C[C@]4(C)CCC(c5ccc(Cl)cc5)=C(CN5CCN(c6ccc(C(=O)NS(=O)(=O)c7ccc(N[C@H](CCN8CCCOCC8)CSc8ccccc8)c(S(=O)(=O)C(F)(F)F)c7)cc6)CC5)C4)CC3)CC2)C(C)(C)C)cc1 [Compound 115]
IC50 (MOLT-4; [7]): < 20 nM
IC50 (RS4; 11; [8]): < 20 nM

Cc1ncsc1-c1ccc([C@H](C)NC(=O)[C@@H]2C[C@@H](O)CN2C(=O)[C@@H](NC(=O)CCCCC(=O)N2CCC(C3CCN(C[C@]4(C)CCC(c5ccc(Cl)cc5)=C(CN5CCN(c6ccc(C(=O)NS(=O)(=O)c7ccc(N[C@H](CCN8CCCOCC8)CSc8ccccc8)c(S(=O)(=O)C(F)(F)F)c7)cc6)CC5)C4)CC3)CC2)C(C)(C)C)cc1 [Compound 116]
IC50 (MOLT-4; [5]): < 20 nM
IC50 (RS4; 11; [6]): < 20 nM

Cc1ncsc1-c1ccc([C@H](C)NC(=O)[C@@H]2C[C@@H](O)CN2C(=O)[C@@H](NC(=O)CN(C)CCC(=O)N2CCC(C3CCN(C[C@]4(C)CCC(c5ccc(Cl)cc5)=C(CN5CCN(c6ccc(C(=O)NS(=O)(=O)c7ccc(N[C@H](CCN8CCCOCC8)CSc8ccccc8)c(S(=O)(=O)C(F)(F)F)c7)cc6)CC5)C4)CC3)CC2)C(C)(C)C)cc1 [Compound 117]
IC50 (MOLT-4; [5]): 20 to 100 nM
IC50 (RS4; 11; [6]): < 20 nM

Cc1ncsc1-c1ccc([C@H](C)NC(=O)[C@@H]2C[C@@H](O)CN2C(=O)[C@@H](NC(=O)CN(C)CC(=O)N2CCC(C3CCN(C[C@]4(C)CCC(c5ccc(Cl)cc5)=C(CN5CCN(c6ccc(C(=O)NS(=O)(=O)c7ccc(N[C@H](CCN8CCCOCC8)CSc8ccccc8)c(S(=O)(=O)C(F)(F)F)c7)cc6)CC5)C4)CC3)CC2)C(C)(C)C)cc1 [Compound 118]
IC50 (MOLT-4; [5]): < 20 nM
IC50 (RS4; 11; [6]): < 20 nM

Cc1ncsc1-c1ccc([C@H](C)NC(=O)[C@@H]2C[C@@H](O)CN2C(=O)[C@@H](NC(=O)CCCCC(=O)N2CCN(C3CCN(C[C@]4(C)CCC(c5ccc(Cl)cc5)=C(CN5CCN(c6ccc(C(=O)NS(=O)(=O)c7ccc(N[C@H](CCN8CCCOCC8)CSc8ccccc8)c(S(=O)(=O)C(F)(F)F)c7)cc6)CC5)C4)CC3)CC2)C(C)(C)C)cc1 [Compound 119]
IC50 (MOLT-4; [5]): < 20 nM
IC50 (RS4; 11; [6]): < 20 nM

Cc1ncsc1-c1ccc([C@H](C)NC(=O)[C@@H]2C[C@@H](O)CN2C(=O)[C@@H](NC(=O)CCCCC(=O)N2CCC(N3CCN(C[C@]4(C)CCC(c5ccc(Cl)cc5)=C(CN5CCN(c6ccc(C(=O)NS(=O)(=O)c7ccc(N[C@H](CCN8CCCOCC8)CSc8ccccc8)c(S(=O)(=O)C(F)(F)F)c7)cc6)CC5)C4)CC3)CC2)C(C)(C)C)cc1 [Compound 120]
IC50 (MOLT-4; [5]): < 20 nM
IC50 (RS4; 11; [6]): < 20 nM

Cc1ncsc1-c1ccc([C@H](C)NC(=O)[C@@H]2C[C@@H](O)CN2C(=O)[C@@H](NC(=O)CCCCCCC(=O)N2C(C)CN(C[C@]3(C)CCC(c4ccc(Cl)cc4)=C(CN4CCN(c5ccc(C(=O)NS(=O)(=O)c6ccc(N[C@H](CCN7CCCOCC7)CSc7ccccc7)c(S(=O)(=O)C(F)(F)F)c6)cc5)CC4)C3)CC2C)C(C)(C)C)cc1 (some centres unmarked) [compound 83]
IC50 (MOLT-4; [3]): 20 to 100 nM
IC50 (RS4; 11; [4]): 100 to 500 nM
